Laboratory results published in ChEMBL document CHEMBL4261621, “Synthesis of enamino-2-oxindoles via conjugate addition between α-azido ketones and 3-alkenyl oxindoles: Cytotoxicity evaluation and apoptosis inducing studies” (Bioorg Med Chem Lett, 2018).
Activity calls are given as the source filed them. No cut-off for these calls is given here.

Columns and labels:
NCI-H460 [1] = assay: Cell cycle arrest in human NCI-H460 cells assessed as accumulation at S phase at 1 uM after 24 hrs by propidium iodide staining based flow cytometry (reference value: 9.93%); format: functional
NCI-H460 [2] = assay: Cell cycle arrest in human NCI-H460 cells assessed as accumulation at G2/M phase at 2.5 uM after 24 hrs by propidium iodide staining based flow cytometry (reference value: 35.49%); format: functional
NCI-H460 [3] = assay: Inhibition of colony formation in human NCI-H460 cells supplemented with fresh medium containing compounds every 3 days measured after 7 days by crystal violet staining based assay; format: functional, cell-based
NCI-H460 [4] = assay: Induction of mitochondrial membrane potential loss in human NCI-H460 cells assessed as depolarized cell population at 10 uM after 72 hrs by JC1 staining based flow cytometry (reference value: 11.63%); format: functional
NCI-H460 [5] = assay: Induction of apoptosis in human NCI-H460 cells assessed as late apoptotic cells at 2.5 uM after 72 hrs by Annexin V-alexa fluor 488/propidium iodide staining based flow cytometry (reference value: 0.34%); format: functional
NCI-H460 [6] = assay: Induction of apoptosis in human NCI-H460 cells assessed as early apoptotic cells at 2.5 uM after 72 hrs by Annexin V-alexa fluor 488/propidium iodide staining based flow cytometry (reference value: 0.77%); format: functional
MDA-MB-231 [7] = assay: Cytotoxicity against human MDA-MB-231 cells at 30 uM after 48 hrs by MTT assay relative to control; format: functional
NCI-H460 [8] = assay: Induction of apoptosis in human NCI-H460 cells assessed as reduction in cell number at 0.25 to 10 uM after 72 hrs by acridine orange/ethidium bromide staining based fluorescence microscopic analysis; format: functional
NCI-H460 [9] = assay: Induction of apoptosis in human NCI-H460 cells assessed as chromatin condensation at 0.25 to 10 uM after 72 hrs by acridine orange/ethidium bromide staining based fluorescence microscopic analysis; format: functional, cell-based
MDA-MB-231 [10] = assay: Cytotoxicity against human MDA-MB-231 cells after 72 hrs by MTT assay; format: functional, cell-based; details: MDA-MB-231, 72 h
NCI-H460 [11] = assay: Cell cycle arrest in human NCI-H460 cells assessed as accumulation at sub-G1 phase at 1 uM after 24 hrs by propidium iodide staining based flow cytometry (reference value: 0.99%); format: functional
NCI-H460 [12] = assay: Cell cycle arrest in human NCI-H460 cells assessed as accumulation at sub-G1 phase at 10 uM after 24 hrs by propidium iodide staining based flow cytometry (reference value: 0.99%); format: functional
NCI-H460 [13] = assay: Cell cycle arrest in human NCI-H460 cells assessed as accumulation at G2/M phase at 1 uM after 24 hrs by propidium iodide staining based flow cytometry (reference value: 35.49%); format: functional
A549 = assay: Cytotoxicity against human A549 cells at 30 uM after 48 hrs by MTT assay relative to control; format: functional
NCI-H460 [14] = assay: Cell cycle arrest in human NCI-H460 cells assessed as accumulation at S phase at 5 uM after 24 hrs by propidium iodide staining based flow cytometry (reference value: 9.93%); format: functional
NCI-H460 [15] = assay: Induction of apoptosis in human NCI-H460 cells assessed as increase in late apoptotic cells after 72 hrs by Annexin V-alexa fluor 488/propidium iodide staining based flow cytometry; format: functional, cell-based
NCI-H460 [16] = assay: Induction of apoptosis in human NCI-H460 cells assessed as late apoptotic cells at 1 uM after 72 hrs by Annexin V-alexa fluor 488/propidium iodide staining based flow cytometry (reference value: 0.34%); format: functional
NCI-H460 [17] = assay: Induction of apoptosis in human NCI-H460 cells assessed as necrotic cells at 1 uM after 72 hrs by Annexin V-alexa fluor 488/propidium iodide staining based flow cytometry (reference value: 0.34%); format: functional
NCI-H460 [18] = assay: Cytotoxicity against human NCI-H460 cells assessed as reduction in cell viability after 72 hrs by phase contrast microscopic analysis; format: functional, cell-based
NCI-H460 [19] = assay: Cytotoxicity against human NCI-H460 cells at 30 uM after 48 hrs by MTT assay relative to control; format: functional
NCI-H460 [20] = assay: Induction of apoptosis in human NCI-H460 cells assessed as early apoptotic cells at 5 uM after 72 hrs by Annexin V-alexa fluor 488/propidium iodide staining based flow cytometry (reference value: 0.77%); format: functional
HCT-116 [21] = assay: Cytotoxicity against human HCT116 cells at 30 uM after 48 hrs by MTT assay relative to control; format: functional
NCI-H460 [22] = assay: Induction of apoptosis in human NCI-H460 cells assessed as membrane blebbing at 0.25 to 10 uM after 72 hrs by acridine orange/ethidium bromide staining based fluorescence microscopic analysis; format: functional, cell-based
NCI-H460 [23] = assay: Cell cycle arrest in human NCI-H460 cells assessed as accumulation at sub-G1 phase at 5 uM after 24 hrs by propidium iodide staining based flow cytometry (reference value: 0.99%); format: functional
NCI-H460 [24] = assay: Induction of reactive oxygen species generation in human NCI-H460 cells after 24 hrs by DCFDA staining based fluorescence microscopic analysis; format: functional, cell-based
NCI-H460 [25] = assay: Induction of apoptosis in human NCI-H460 cells assessed as increase in early apoptotic cells after 72 hrs by Annexin V-alexa fluor 488/propidium iodide staining based flow cytometry; format: functional, cell-based
HCT-116 [26] = assay: Cytotoxicity against human HCT116 cells after 72 hrs by MTT assay; format: functional, cell-based; details: HCT-116, 72 h

With `CCOC(=O)/C(=C(\N)C(=O)c1ccccc1)C1C(=O)N(C)c2ccc(F)cc21` (configuration not stated) the Activity (NCI-H460 [1]) was 6.55%, the Activity (NCI-H460 [2]) was 64.03% and the inhibition (NCI-H460 [3]) was “Dose-dependent effect”. The Activity (NCI-H460 [4]) was 90.49%, the Activity (NCI-H460 [5]) was 4.4% and the Activity (NCI-H460 [6]) was 19.4%. For the same compound, the Activity (MDA-MB-231 [7]) was over 50%, the Activity (NCI-H460 [8]) was “Active” and the Activity (NCI-H460 [9]) was “Active”. The IC50 (MDA-MB-231 [10]) was 6.27 µM, the Activity (NCI-H460 [11]) was 9.93% and the Activity (NCI-H460 [12]) was 11.66%. The Activity (NCI-H460 [13]) was 61.59%, the Activity (A549) was over 50% and the Activity (NCI-H460 [14]) was 3.59%. The Activity (NCI-H460 [15]) was “Dose-dependent effect”, the Activity (NCI-H460 [16]) was 3.15% and the Activity (NCI-H460 [17]) was 0.24%. For the same compound, the Activity (NCI-H460 [18]) was “Dose-dependent effect”, the Activity (NCI-H460 [19]) was over 50% and the Activity (NCI-H460 [20]) was 35.42%. For the same compound, the Activity (HCT-116 [21]) was over 50%, the Activity (NCI-H460 [22]) was “Active” and the Activity (NCI-H460 [23]) was 11.94%. For the same compound, the Activity (NCI-H460 [24]) was “Dose-dependent effect”, the Activity (NCI-H460 [25]) was “Dose-dependent effect” and the IC50 (HCT-116 [26]) was 5.14 µM.
